Results on one compound are retold here after patent US20190055231A1, “BACE1 INHIBITORS” (Hoffmann-La Roche Inc., priority 2016, published 2019).

Each structure is given as a SMILES string. Values joined by “and” are separate entries in the source; they are usually repeats but may differ in a detail not shown here. Equal entries are not always repeated. Where two headings read alike, the source gives them in different places.

Series [1] addresses T1, BACE1 (Homo sapiens, UniProt P56817). Briefly: BACE1 cell-free assay (BACE1 enzyme assay). Format: biochemical. An excerpt:
BACE1 Cell-Free Assay (BACE1 Enzyme Assay)
The determination of BACE1 activity can be either measured by using an enzymatic cell-free fluorescence assay (BACE1 cell free, table 2) or by a whole cell assay using HEK293 APP cells (Cellular Aβ-lowering, table 2). Both assays are suitable to determine BACE1 inhibition.

The target in another series is T2, BACE2 (Homo sapiens, UniProt Q9Y5Z0).
T2 sequence (Q9Y5Z0 63-518): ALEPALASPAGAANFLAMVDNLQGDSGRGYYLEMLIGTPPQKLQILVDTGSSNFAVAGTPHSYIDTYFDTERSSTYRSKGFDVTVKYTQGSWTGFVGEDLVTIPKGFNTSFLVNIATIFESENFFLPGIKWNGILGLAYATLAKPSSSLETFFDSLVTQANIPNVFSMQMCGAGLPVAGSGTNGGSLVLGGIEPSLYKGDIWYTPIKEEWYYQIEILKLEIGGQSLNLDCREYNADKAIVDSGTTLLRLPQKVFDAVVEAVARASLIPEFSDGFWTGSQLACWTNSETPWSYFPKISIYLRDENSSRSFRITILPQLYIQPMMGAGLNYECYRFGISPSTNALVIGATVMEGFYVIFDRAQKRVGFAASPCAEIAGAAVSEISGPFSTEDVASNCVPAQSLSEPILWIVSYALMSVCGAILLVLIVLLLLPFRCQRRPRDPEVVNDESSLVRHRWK
Put plainly: BACE2 cell-free assay (BACE2 enzyme assay). Format: biochemical. Particulars: for BACE2/BACE1 IC50 ratio: BACE2 IC50 divided by BACE1 IC50, cell free assays. From the text: BACE2 Cell-Free Assay (BACE2 Enzyme Assay)
Selectivity versus related targets is important in terms of safety of a drug candidate. BACE2 is a close homolog of BACE1. BACE2 was recently reported to play a crucial role in pigmentation of the skin by processing pigment cell-specific melanocyte protein (PMEL). (Proc Natl Acad Sci USA. 2013 Jun. 25; 110(26):10658-63. doi: 10.1073/pnas.1220748110. Epub 2013 Jun. 10). It is believed that PMEL contributes in melanogenesis. Therefore, selectivity versus BACE2 is advantageous when it comes to pigmentation of the skin. The selectivity ratio of BACE2/BACE1 IC50 was calculated by dividing the BACE2 IC50 value by the BACE1 IC50 value determined each in the cell free assay. […] This implies a 3-fold improvement of example 1 compared to comparators 4 and 5.

The target of series [2] is T1, BACE1. Put plainly: BACE1 KD SPR assay. Format: binding. Particulars: Surface Plasmon Resonance.
Protocol: Surface Plasmon Resonance measurements were performed on a Biacore T200 instrument. Immobilization of BACE-1 was performed by standard amine coupling chemistry on a CMS sensor to achieve protein surface density of ˜8000 pg/mm2 (RU). Immobilization was performed using the acetate buffer (25 mM Na acetate, 150 mM NaCl, 0.01% P20, 3 mM EDTA, pH 4.5) as the running buffer at 25° C. In the first step the carboxyl groups of CMS sensor surface were transformed to the reactive succinimide esters by contacting the sensor surface 7 minutes with a solution of 0.2 M N-ethyl-N-dimethylaminopolycarboodiimide (EDC) and 0.05 M N-hydroxysuccinimide (NHS). After the activation, the sensor surface was contacted with (˜5 μgml-1 BACE1 protein solution in 10 mM sodium acetate coupling buffer (pH 4.5) to reach desired protein surface density. Finally, the excess of activated carboxylic groups on the surface was quenched with ethanolamine (1 M, pH 8.5, 7 min).
Binding assays were performed at 18° C. under the same buffer conditions as immobilization of the protein. Compounds were dissolved in DMSO as 10 mM stocks and diluted in running buffer to perform titration series (5 concentrations with dilution factor of 2) on a protein and reference (activated and deactivated CMS sensor surface) surfaces in parallel.
Another series deals with hERG channel (Homo sapiens, UniProt Q12809). Briefly: hERG patch liner assay. Format: cell-based. From the text: The methods to determine the hERG IC20 patch liner values were described in Toward a New Gold Standard for Early Safety: Automated Temperature-Controlled hERG Test on the PatchLiner. Polonchuk L., Front Pharmacol. 2012 Jan. 26; 3:3. (doi: 10.3389/fphar.2012.00003. eCollection 2012.) PMID:22303293
Chain of hERG channel (Q12809 whole entry): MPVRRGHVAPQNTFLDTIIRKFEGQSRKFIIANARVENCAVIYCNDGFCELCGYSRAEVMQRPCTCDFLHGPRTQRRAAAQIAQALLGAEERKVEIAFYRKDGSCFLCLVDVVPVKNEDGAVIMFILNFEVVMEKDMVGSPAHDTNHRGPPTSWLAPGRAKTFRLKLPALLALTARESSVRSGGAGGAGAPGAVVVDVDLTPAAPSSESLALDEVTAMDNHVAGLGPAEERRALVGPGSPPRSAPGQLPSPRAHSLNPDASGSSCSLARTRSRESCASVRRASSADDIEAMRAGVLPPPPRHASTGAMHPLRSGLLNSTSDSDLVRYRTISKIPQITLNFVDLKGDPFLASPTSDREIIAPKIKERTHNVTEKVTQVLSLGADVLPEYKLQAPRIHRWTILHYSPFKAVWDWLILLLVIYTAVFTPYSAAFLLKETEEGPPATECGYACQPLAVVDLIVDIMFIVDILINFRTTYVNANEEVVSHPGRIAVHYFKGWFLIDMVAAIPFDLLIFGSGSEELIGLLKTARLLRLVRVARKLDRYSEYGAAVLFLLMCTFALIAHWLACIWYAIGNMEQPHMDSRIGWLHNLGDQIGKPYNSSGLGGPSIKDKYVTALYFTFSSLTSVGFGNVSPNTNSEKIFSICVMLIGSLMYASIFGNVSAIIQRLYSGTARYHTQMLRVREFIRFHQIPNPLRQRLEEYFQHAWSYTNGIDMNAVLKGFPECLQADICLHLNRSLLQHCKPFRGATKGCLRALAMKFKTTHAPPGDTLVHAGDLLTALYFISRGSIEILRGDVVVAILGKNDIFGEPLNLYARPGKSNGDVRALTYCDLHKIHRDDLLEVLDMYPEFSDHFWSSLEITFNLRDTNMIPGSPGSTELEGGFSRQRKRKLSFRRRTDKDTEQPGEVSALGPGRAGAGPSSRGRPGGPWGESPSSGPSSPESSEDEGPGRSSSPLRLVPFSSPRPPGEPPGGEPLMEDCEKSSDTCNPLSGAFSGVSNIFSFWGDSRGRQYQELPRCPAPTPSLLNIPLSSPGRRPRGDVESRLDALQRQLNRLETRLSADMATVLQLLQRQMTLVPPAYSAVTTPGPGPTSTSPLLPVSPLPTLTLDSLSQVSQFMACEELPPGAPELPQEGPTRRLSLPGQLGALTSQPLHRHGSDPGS
For orientation: Block of hERG is tested as a sign of cardiac risk.

The nature of the next series: Rat single dose PK study. Format: in vivo. The settings on record: 1 mg/kg; for concentration at 4 h: oral. Here is the method: (§1) Rat Single Dose PK Study (Inhibition of CSF Aβ40 in Wistar Rats)
(§2) The rat single dose PK study was described in H. Hilpert et al., J. Med. Chem. 2013, 56, 3980-3995 (dx.doi.org/10.1021/jm400225m) with slight modifications.
Blood is transferred into a labeled EDTA-K2 Eppendorf tube and the sample is mixed by inverting the tubes several times. Blood is stored at −20° C.

The subject of the next series is CSF Aβ40. Put plainly: Rat single dose study, inhibition of CSF Aβ40 in Wistar rats. Format: in vivo. The settings on record: rat CSF Aβ40, 1 mg/kg, 4 h post dose. As for the experimental part:
as §1, §2
Aβ 40 concentration was determined without solid phase extraction following a modified protocol from Perkin-Elmer with a commercially available antibody against the N-terminal part of rat Aβ (252Q6, Invitrogen cat. No. AMB0062) and an in-house C-terminal specific anti-Aβ40 antibody (BAP-24, Brockhaus M. et al., J. Neuroreport, 1998, 9:1481-1486) bound to acceptor beads (PerkinElmer, Cat. 6772002). 20 μl analyte per well (reconstituted extracts or standard) were loaded to a White Optiplate-96 (Perkin-Elmer, Cat#6005290). Then, a mixture of biotinylated BAP24 antibody (1:2000 diluted at approximately 1 nM final concentration) and antibody 252Q6 bound to AlphaLISA acceptor beads (Perkin-Elmer cat. No. 6772002 (1:100 diluted, 10 ug/mL final concentration) in 1× AlphaLISA buffer (Perkin-Elmer, AL000F) was added. After 1 hour room temperature incubation in the dark, 20 μL of a streptavidin coated donor beads dilution (40 μg/mL) were added and incubated for 30 minutes in the dark. Light emission at 615 nm was recorded using an EnVision AlphaScreen Reader (Perkin-Elmer). Levels of Aβ 40 were calculated as percentage of the baseline samples from non-treated animals.

For orientation: IC50 means the point on the concentration scale where inhibition reaches its midpoint. A high value points to weaker potency in that assay. A word on the Kd: it is the free concentration of one partner at which half of the binding sites on the other are occupied at equilibrium, for simple one-to-one binding. The low end stands for tighter binding, the high end for weaker binding. By residence time is commonly meant the mean lifetime of the complex, commonly the reciprocal of the off-rate. The term IC20 denotes the point of the concentration-response curve where the effect stands at 20%. The term bioavailability denotes dose-corrected exposure relative to a reference, in per cent.

T1 sequence (P56817 46-501): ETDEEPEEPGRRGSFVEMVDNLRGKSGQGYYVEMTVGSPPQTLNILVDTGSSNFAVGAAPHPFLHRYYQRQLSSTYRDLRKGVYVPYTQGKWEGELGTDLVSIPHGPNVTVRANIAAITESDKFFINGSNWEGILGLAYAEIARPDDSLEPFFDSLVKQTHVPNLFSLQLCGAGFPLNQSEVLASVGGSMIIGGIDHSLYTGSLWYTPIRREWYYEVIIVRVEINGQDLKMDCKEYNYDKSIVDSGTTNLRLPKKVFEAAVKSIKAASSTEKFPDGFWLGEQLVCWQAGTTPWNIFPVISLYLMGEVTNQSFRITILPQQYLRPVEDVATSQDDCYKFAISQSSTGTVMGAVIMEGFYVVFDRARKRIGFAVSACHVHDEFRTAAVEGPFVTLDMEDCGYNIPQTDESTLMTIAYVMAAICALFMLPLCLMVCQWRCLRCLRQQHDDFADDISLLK

As to `Cc1cc(C#N)cnc1C(=O)Nc1ccc(F)c([C@@]2(C)N=C(N)O[C@H](C(F)(F)F)[C@@H]2F)n1` [Example 1, N-(6-((4R,5R,6S)-2-amino-5-fluoro-4-methyl-6-(trifluoromethyl)-5,6-dihydro-4H-1,3-oxazin-4-yl)-5-fluoropyridin-2-yl)-5-cyano-3-methylpicolinamide], inhibition on BACE1 [1] was half-maximal at 36 nM (IC50). Also, on BACE2, the “improvement of BACE2/BACE1 selectivity compared to comparators 4 and 5” value came out at 3 fold. For the same compound, the “BACE2/BACE1 IC50 ratio” value on BACE2 is given as 2.0; on BACE2 (listed as example 1), 2. This compound displayed an equilibrium dissociation constant (Kd) at BACE1 [2] (18° C., pH 4.5) of 2 nM. The residence time on BACE1 [2] (t1/2=0.693/koff) came to 16 min. Moreover, on hERG channel (at approximately 80% reduction of Aβ40 in rat CSF), the “improvement of the hERG safety margin versus comparator 6” value came out at 17 fold. Besides, the 20% effect level on hERG channel (human, hERG patchliner assay) (IC20) was put at 2340 nM. Further, the “Plasma concentration at 4 h, free” value in the series “Rat single dose PK study” (4 h, free unbound) is given as 12.5 nM. Besides, the “Plasma concentration at 4 h” value in the series “Rat single dose PK study” (4 h, total) stood at 90.2 nM. Also, the concentration at 4 h in the series “Rat single dose PK study” (Wistar, plasma, 4 h, free unbound, read-out: Plasma concentration at 4 h, free) is 12.5 nM; in “Rat single dose PK study” (Wistar, plasma, 4 h, free, read-out: Plasma concentration at 4 h, free), 41 ng/mL; in “Rat single dose PK study” (Wistar, plasma, 4 h, total, read-out: Plasma concentration at 4 h), 90 nM and 41 ng/mL. The bioavailability in “Rat single dose PK study” (Wistar, plasma, po, read-out: Oral Bioavailability F) came out at 62%. In addition, the “CSF Aβ-lowering 1 mg/kg at 4 h” value with CSF Aβ40 and in the series on CSF Aβ40 (listed as example 1) was 80% throughout.
